Results published in US20250163022A1, “PARP1 INHIBITORS” (Synnovation Therapeutics, Inc., priority 2021, published 2025).

Target: T1, PARP1 (Homo sapiens, UniProt P09874)
T1 construct: HeLa cells (wide-type with PARP1 gene) were purchased from ATCC; host or cells: HeLa (wild type)
Assay: In-Cell Western measurement of PARylation in PARP1 WT and knockout cells
Assay type: cell-based
Conditions: HeLa cells (wide-type with PARP1 gene); hydrogen peroxide-induced PARylation; compounds 30 min, then 10 mM hydrogen peroxide 15 min; read-out: HeLa_WT_IC50
Source text: The purpose of this cell-based assay is to measure the potency and selectivity of synthesized PARP inhibitors in suppressing hydrogen peroxide-induced PARylation in cells with and without PARP1 expression. Several cell lines were used in this assay. The human PARP1 knockout HEK-293T cell line (#ab266598) was purchased from Abcam, and its corresponding wide-type control is the human wild-type HEK-293T cell line (#ab255449). The HAP1 isogenic cell lines with and without the PARP1 gene (#HZGHC003943c006) were purchased from Horizon Discovery. HeLa cells (wide-type with PARP1 gene) were purchased from ATCC. Cells were cultured using complete medium containing 10% fetal bovine serum. One day before the assay, cells were seeded in 96-well plates at the density of 20,000 cells per well in 100 uL complete medium. Compounds were dissolved using DMSO and diluted to the working concentrations using complete medium. Cells were pre-treated with compounds for 30 min and then stimulated with 10 mM hydrogen peroxide for 15 min. After stimulation, cells were immediately fixed using ice-cold methanol for 20 min. After fixation, cells were washed using 1×PBST buffer for 3 times, 5 min each time, to eliminate residual methanol. Cells were blocked for 2 h at room temperature in blocking buffer (LI-COR Biosciences, #927-70001). Primary antibody was diluted in diluent buffer (LI-COR Biosciences, #927-75001, 1:200) at 50 uL per well. Cells were incubated with the primary antibody at 4° C. for 18 h. The wells were then washed using 1×PBST for 3 times, 5 min each time. IRDye® 680RD Goat anti-Mouse IgG (H+L) secondary antibody was diluted at 1/2000 using the diluent buffer and added at 100 μL per well. Secondary antibody incubation was for 1 h at room temperature. Cells were then washed using 1×PBST for 3 times, 5 min each time. The signal was detected and analyzed using LI-COR Odyssey DLx Imaging system. Data were collected and further processed using GraphPad Prism for IC50 estimation.

T1 sequence (P09874 whole entry): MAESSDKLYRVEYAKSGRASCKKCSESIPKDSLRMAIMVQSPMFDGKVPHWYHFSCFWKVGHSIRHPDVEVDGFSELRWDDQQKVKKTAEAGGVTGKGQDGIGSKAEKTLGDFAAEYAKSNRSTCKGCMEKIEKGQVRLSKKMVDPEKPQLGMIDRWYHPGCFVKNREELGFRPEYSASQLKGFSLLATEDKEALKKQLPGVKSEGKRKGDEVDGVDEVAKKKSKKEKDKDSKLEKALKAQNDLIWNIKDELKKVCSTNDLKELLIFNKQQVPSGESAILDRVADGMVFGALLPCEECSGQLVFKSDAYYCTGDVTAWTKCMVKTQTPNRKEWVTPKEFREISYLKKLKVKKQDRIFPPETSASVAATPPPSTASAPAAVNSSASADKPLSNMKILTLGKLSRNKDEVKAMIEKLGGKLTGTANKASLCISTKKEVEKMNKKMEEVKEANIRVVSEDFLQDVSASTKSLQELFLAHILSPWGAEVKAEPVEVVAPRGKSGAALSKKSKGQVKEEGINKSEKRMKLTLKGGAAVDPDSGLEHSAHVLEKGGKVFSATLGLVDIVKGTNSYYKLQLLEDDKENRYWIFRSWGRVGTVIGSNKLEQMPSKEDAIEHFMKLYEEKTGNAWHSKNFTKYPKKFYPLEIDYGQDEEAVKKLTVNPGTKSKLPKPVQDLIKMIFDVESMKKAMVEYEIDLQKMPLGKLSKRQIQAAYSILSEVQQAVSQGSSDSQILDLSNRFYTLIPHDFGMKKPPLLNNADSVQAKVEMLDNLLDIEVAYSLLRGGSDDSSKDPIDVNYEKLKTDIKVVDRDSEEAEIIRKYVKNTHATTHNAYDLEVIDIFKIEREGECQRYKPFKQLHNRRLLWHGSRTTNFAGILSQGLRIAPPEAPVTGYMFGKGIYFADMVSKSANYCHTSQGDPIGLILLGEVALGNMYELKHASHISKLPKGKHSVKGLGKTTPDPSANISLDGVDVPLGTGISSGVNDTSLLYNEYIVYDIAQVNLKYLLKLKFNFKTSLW

IC50 [nM] | Structure (SMILES)
≤ 10 | CCN1C(=O)Nc2c(F)c(CN3CCN(c4ccc(C(=O)NC5(CC#N)CC5)nc4C)CC3)cc3ncnc1c23 [Compound I-79, N-(1-(cyanomethyl)cyclopropyl)-5-(4-((3-ethyl-9-fluoro-2-oxo-2,3-dihydro-1H-pyrimido[4,5,6-de]quinazolin-8-yl)methyl)piperazin-1-yl)-6-methylpicolinamide]
≤ 10 | CCn1c(=O)[nH]c2cc(CN3CCN(c4ccc(C(=O)NC)nc4C)CC3)cc(Cl)c2c1=O [Compound I-32, 5-(4-((5-chloro-3-ethyl-2,4-dioxo-1,2,3,4-tetrahydroquinazolin-7-yl)methyl)piperazin-1-yl)-N,6-dimethylpicolinamide]
≤ 10 | CCN1C(=O)Nc2cc(CN3CCN(c4ccc(C(=O)NC)nc4C)CC3)cc3cnnc1c23 [Compound I-45, 5-[4-[(12-Ethyl-11-oxo-2,3,10,12-tetrazatricyclo[7.3.1.05,13]trideca-1,3,5,7,9 (13)-pentaen-7-yl)methyl]piperazin-1-yl]-N,6-dimethyl-pyridine-2-carboxamide]
≤ 10 | CCN1C(=O)Nc2c(F)c(CN3CCN(c4ccc(C(=O)NC5(CC#N)CC5)cc4C)CC3)cc3ncnc1c23 [Compound I-93, N-(1-(cyanomethyl)cyclopropyl)-4-(4-((3-ethyl-9-fluoro-2-oxo-2,3-dihydro-1H-pyrimido[4,5,6-de]quinazolin-8-yl)methyl)piperazin-1-yl)-3-methylbenzamide]
≤ 10 | CCN1C(=O)Nc2c(F)c(CN3CCN(c4ccc(C(=O)N[C@H]5C[C@H](C#N)C5)nc4C)CC3)cc3ncnc1c23 [Compound I-60, N-((1r,3r)-3-cyanocyclobutyl)-5-(4-((3-ethyl-9-fluoro-2-oxo-2,3-dihydro-1H-pyrimido[4,5,6-de]quinazolin-8-yl)methyl)piperazin-1-yl)-6-methylpicolinamide]
10 to 100 | CCN1C(=O)Nc2c(F)c(CN3CCN(c4ccc(C(=O)NC)nc4C)CC3)cc3c2c1nc(=O)n3C [Compound I-51, 5-(4-((3-Ethyl-9-fluoro-6-methyl-2,5-dioxo-2,3,5,6-tetrahydro-1H-pyrimido[4,5,6-de]quinazolin-8-yl)methyl)piperazin-1-yl)-N,6-dimethylpicolinamide]
≤ 10 | CCN1C(=O)Nc2c(F)c(CN3CCN(c4ccc(C(=O)N[C@H]5[C@@H]6COC[C@@H]65)nc4C)CC3)cc3ncnc1c23 [Compound I-70, N-((1R,5S,6r)-3-oxabicyclo[3.1.0]hexan-6-yl)-5-(4-((3-ethyl-9-fluoro-2-oxo-2,3-dihydro-1H-pyrimido[4,5,6-de]quinazolin-8-yl)methyl)piperazin-1-yl)-6-methylpicolinamide]
≤ 10 | CCN1C(=O)Nc2cc(CN3CCN(c4ccc(C(=O)NC)nc4C(F)(F)F)CC3)cc3ncnc1c23 [Compound I-18, 5-(4-((3-Ethyl-2-oxo-2,3-dihydro-1H-pyrimido[4,5,6-de]quinazolin-8-yl)methyl)piperazin-1-yl)-N-methyl-6-(trifluoromethyl)picolinamide]
≤ 10 | CCn1c(=O)[nH]c2c(F)c(CN3CCN(c4ccc(C(=O)NC)nc4C)CC3)cc(C3CC3)c2c1=O [Compound I-40, 5-(4-((5-Cyclopropyl-3-ethyl-8-fluoro-2,4-dioxo-1,2,3,4-tetrahydroquinazolin-7-yl)methyl)piperazin-1-yl)-N,6-dimethylpicolinamide]
≤ 10 | CCN1C(=O)Nc2cc(CN3CCN(c4ccc(C(=O)NC)nc4C)CC3)cc3ncnc1c23 [Compound I-17, 5-(4-((3-Ethyl-2-oxo-2,3-dihydro-1H-pyrimido[4,5,6-de]quinazolin-8-yl)methyl)piperazin-1-yl)-N,6-dimethylpicolinamide]
≤ 10 | CCn1c(=O)[nH]c2cc(CN3CCN(c4ccc(C(=O)NC)nc4C(F)(F)F)CC3)ccc2c1=O [Compound I-31, 5-(4-((3-Ethyl-2,4-dioxo-1,2,3,4-tetrahydroquinazolin-7-yl)methyl)piperazin-1-yl)-N-methyl-6-(trifluoromethyl)picolinamide]
≤ 10 | CCN1C(=O)Nc2c(F)c(CN3CCN(c4ccc(C(=O)NC)nc4C)CC3)cc3c(C)nnc1c23 [Compound I-54, 5-(4-((9-Ethyl-6-fluoro-3-methyl-8-oxo-8,9-dihydro-7H-pyridazino[3,4,5-de]quinazolin-5-yl)methyl)piperazin-1-yl)-N,6-dimethylpicolinamide]
10 to 100 | CCN1C(=O)Nc2c(F)c(CN3CCN(c4ccc(C(=O)N[C@@H]5CCN(C)C5)nc4C)CC3)cc3ncnc1c23 [Compound I-77, (R)-5-(4-((3-ethyl-9-fluoro-2-oxo-2,3-dihydro-1H-pyrimido[4,5,6-de]quinazolin-8-yl)methyl)piperazin-1-yl)-6-methyl-N-(1-methylpyrrolidin-3-yl)picolinamide]
≤ 10 | CCn1c(=O)[nH]c2cc(CN3CCN(c4ccc(C(=O)NC)nc4C)CC3)cc(C(F)F)c2c1=O [Compound I-37, 5-(4-((5-(Difluoromethyl)-3-ethyl-2,4-dioxo-1,2,3,4-tetrahydroquinazolin-7-yl)methyl)piperazin-1-yl)-N,6-dimethylpicolinamide]
≤ 10 | CNC(=O)c1ccc(N2CCN(Cc3ncc4c5c(c(=O)[nH]c4c3F)CCC5)CC2)c(C)n1 [Compound I-25, 5-(4-((4-Fluoro-6-oxo-6,7,8,9-tetrahydro-5H-cyclopenta[c][1,6]naphthyridin-3-yl)methyl)piperazin-1-yl)-N,6-dimethylpicolinamide]
≤ 10 | CNC(=O)c1ccc(N2CCN(Cc3cnc4c5c(c(=O)[nH]c4c3)CCC5)CC2)c(C(F)(F)F)n1 [Compound I-23, N-methyl-5-(4-((6-oxo-6,7,8,9-tetrahydro-5H-cyclopenta[c][1,5]naphthyridin-3-yl)methyl)piperazin-1-yl)-6-(trifluoromethyl)picolinamide]
≤ 10 | CNC(=O)c1ccc(N2CCN(Cc3cnc4c5c(c(=O)[nH]c4c3)CCC5)CC2)cn1 [Compound I-6, N-methyl-5-(4-((6-oxo-6,7,8,9-tetrahydro-5H-cyclopenta[c][1,5]naphthyridin-3-yl)methyl)piperazin-1-yl)picolinamide]
≤ 10 | CCN1C(=O)Nc2c(F)c(CN3CCN(c4ccc(C(=O)NC5(CC#N)CC5)cc4F)CC3)cc3ncnc1c23 [Compound I-94, N-(1-(cyanomethyl)cyclopropyl)-4-(4-((3-ethyl-9-fluoro-2-oxo-2,3-dihydro-1H-pyrimido[4,5,6-de]quinazolin-8-yl)methyl)piperazin-1-yl)-3-fluorobenzamide]
≤ 10 | CCN1C(=O)Nc2cc(CN3CCN(c4ccc(C(=O)NC)nc4F)CC3)cc3ncnc1c23 [Compound I-19, 5-(4-((3-ethyl-2-oxo-2,3-dihydro-1H-pyrimido[4,5,6-de]quinazolin-8-yl)methyl)piperazin-1-yl)-6-fluoro-N-methylpicolinamide]
≤ 10 | CNC(=O)c1ccc(N2CCN(Cc3cc(C(F)F)c4c(=O)n(C)c(=O)[nH]c4c3)CC2)c(C)n1 [Compound I-47, 5-(4-((5-(Difluoromethyl)-3-methyl-2,4-dioxo-1,2,3,4-tetrahydroquinazolin-7-yl)methyl)piperazin-1-yl)-N,6-dimethylpicolinamide]
≤ 10 | CCN1C(=O)Nc2c(F)c(CN3CCN(c4ccc(C(=O)NC)nc4C)CC3)cc3c2c1nn3C [Compound I-34, 5-(4-((3-Ethyl-6-fluoro-1-methyl-4-oxo-1,3,4,5-tetrahydropyrazolo[3,4,5-de]quinazolin-7-yl)methyl)piperazin-1-yl)-N,6-dimethylpicolinamide]
≤ 10 | CCN1C(=O)Nc2c(F)c(CN3CCN(c4ccc(C(=O)N[C@H]5CCOC5)nc4C)CC3)cc3ncnc1c23 [Compound I-73, (S)-5-(4-((3-ethyl-9-fluoro-2-oxo-2,3-dihydro-1H-pyrimido[4,5,6-de]quinazolin-8-yl)methyl)piperazin-1-yl)-6-methyl-N-(tetrahydrofuran-3-yl)picolinamide]
≤ 10 | CCN1C(=O)Nc2c(F)c(CN3CCN(c4ccc(C(=O)NC5(COC)CC5)nc4C)CC3)cc3ncnc1c23 [Compound I-66, 5-(4-((3-ethyl-9-fluoro-2-oxo-2,3-dihydro-1H-pyrimido[4,5,6-de]quinazolin-8-yl)methyl)piperazin-1-yl)-N-(1-(methoxymethyl)cyclopropyl)-6-methylpicolinamide]
10 to 100 | CCN1C(=O)Nc2c(F)c(CN3CCN(c4ccc(C(=O)N[C@@H]5[C@@H]6COC[C@@H]65)nc4C)CC3)cc3ncnc1c23 [Compound I-69, N-((1R,5S,6s)-3-oxabicyclo[3.1.0]hexan-6-yl)-5-(4-((3-ethyl-9-fluoro-2-oxo-2,3-dihydro-1H-pyrimido[4,5,6-de]quinazolin-8-yl)methyl)piperazin-1-yl)-6-methylpicolinamide]
